Patent US4540700A, “Treatment of diabetic complications with certain spiro-imidazolidine-diones” (Alcon Laboratories, Inc., priority 1984, dated 1985)
Where two headings read alike, the source gives them in different places. Blank lines part the entries; values can stand above or below the compound they belong to.

Key:
Format in all cases: biochemical
aldose reductase = aldose reductase inhibition of spiro-xanthene-imidazolidines (in words)
Human Aldose Reductase = Human Aldose Reductase (Homo sapiens, UniProt P15121); assay: Human Aldose Reductase Inhibition
Rat Aldose Reductase = Rat Aldose Reductase (Rattus norvegicus, UniProt P07943); assay: Rat Aldose Reductase Inhibition; settings: for inhibition at 100 µM: 10^-4, read-out: In vitro Aldose Reductase Inhibition; for inhibition at 10 µM: 10^-5, read-out: In vitro Aldose Reductase Inhibition; for inhibition at 1 µM: 10^-6, read-out: In vitro Aldose Reductase Inhibition; for inhibition at 0.1 µM: 10^-7, read-out: In vitro Aldose Reductase Inhibition; for inhibition at 0.01 µM: 10^-8, read-out: In vitro Aldose Reductase Inhibition
Description: Biophysical Chemistry, 8 (1978) 81-85; P. F. Kador, L. O. Merola and J. H
Kinoshita Documenta Ophthamologica, 18 (1979) 117.

[1] = 10^-4, human, read-out: In vitro Aldose Reductase Inhibition
[2] = 10^-5, human, read-out: In vitro Aldose Reductase Inhibition
[3] = 10^-6, human, read-out: In vitro Aldose Reductase Inhibition
[4] = read-out: In vitro Aldose Reductase Inhibition

activity as aldose reductase inhibitors relative to corresponding tetracyclic fluorene compounds (aldose reductase): unexpectedly less active
SMILES: O=C1NC(=O)C2(N1)c1cc(F)ccc1Oc1ccc(F)cc12 [spiro-(2,7-difluroxanthen-9,4'-imidazolidine)-2',5'-dione]

inhibition at 100 µM (Human Aldose Reductase; [1]): 50% | inhibition at 10 µM (Human Aldose Reductase; [2]): 28% | inhibition at 1 µM (Human Aldose Reductase; [3]): 20%
SMILES: Nc1cccc2c1-c1ccccc1C21NC(=O)NC1=O (racemic) [G, dl-Spiro-[4-aminofluoren-9,4'-imidazolidine]-2',5'-dione]

inhibition at 100 µM (Human Aldose Reductase; [1]): 65% | inhibition at 10 µM (Human Aldose Reductase; [2]): 20% | inhibition at 1 µM (Human Aldose Reductase; [3]): 8%
SMILES: O=C1NC(=O)C2(N1)c1ccccc1-c1ccc([N+](=O)[O-])cc12 (racemic) [C, dl-Spiro-[2-nitrofluoren-9,4'-imidazolidine]-2',5'-dione]

IC50 (Rat Aldose Reductase): 1700 nM
SMILES: C[S+]([O-])c1ccc2c(c1)C1(NC(=O)NC1=O)c1ccccc1-2 (racemic) [Q, Spiro-[2-(R,S)-methylsulfinylfluoren-9, (R,S)-4'-imidazolidine]-2',5'-dione]

inhibition at 100 µM (Human Aldose Reductase; [1]): 43% | inhibition at 10 µM (Human Aldose Reductase; [2]): 31% | inhibition at 1 µM (Human Aldose Reductase; [3]): 0%
SMILES: Nc1ccc2c(c1)C1(NC(=O)NC1=O)c1ccccc1-2 (racemic) [H, dl-Spiro-[2-aminofluoren-9,4'-imidazolidine]-2',5'-dione]

SMILES: O=C1NC(=O)C2(N1)c1cc([N+](=O)[O-])ccc1-c1ccc([N+](=O)[O-])cc12 [Compound D, Spiro [2,7-dinitrofluoren-9,4'-imidazolidine]-2',5'-dione]
inhibition at 1 µM (Human Aldose Reductase; [4]): 20% | inhibition at 10 µM (Human Aldose Reductase; [4]): 76% | inhibition at 100 µM (Human Aldose Reductase; [4]): 100%

IC50 (Rat Aldose Reductase): 590 nM
SMILES: O=C1NC(=O)C2(N1)c1ccccc1-c1cccc(F)c12 (racemic) [S, dl-Spiro-[1-fluorofluoren-9,4'-imidazolidine]-2',5'-dione]

inhibition at 100 µM (Rat Aldose Reductase): 89% | inhibition at 10 µM (Rat Aldose Reductase): 54% | inhibition at 1 µM (Rat Aldose Reductase): 0%
SMILES: O=C1NC(=O)C2(N1)c1ccccc1-c1ccc(C(=O)O)cc12 (racemic) [N, dl-Spiro-[2-carboxyfluoren-9,4'-imidazolidine]-2',5'-dione]

inhibition at 100 µM (Human Aldose Reductase; [1]): 94% | inhibition at 10 µM (Human Aldose Reductase; [2]): 88% | inhibition at 1 µM (Human Aldose Reductase; [3]): 77% | inhibition at 0.1 µM (Human Aldose Reductase; 10^-7, human, read-out: In vitro Aldose Reductase Inhibition): 39% | inhibition at 0.01 µM (Human Aldose Reductase; 10^-8, human, read-out: In vitro Aldose Reductase Inhibition): 0%
SMILES: O=C1NC(=O)C2(N1)c1ccccc1-c1ccc(I)cc12 (racemic) [J, dl-Spiro-[2-iodofluoren-9,4'-imidazolidine]-2',5'-dione]

IC50 (Human Aldose Reductase; human): 1200 nM | inhibition at 0.1 µM (Human Aldose Reductase; [4]): 13% | inhibition at 1 µM (Human Aldose Reductase; [4]): 49% | inhibition at 10 µM (Human Aldose Reductase; [4]): 84% | inhibition at 100 µM (Human Aldose Reductase; [4]): 89%
SMILES: O=C1NC(=O)C2(N1)c1ccccc1-c1ccccc12 [A, Spiro-(fluoren-9,4'-imidazolidine)-2',5'-dione]

IC50 (Rat Aldose Reductase): 5000 nM
SMILES: CS(=O)(=O)c1ccc2c(c1)C1(NC(=O)NC1=O)c1ccccc1-2 (racemic) [R, dl-Spiro-(2-methylsulfonylfluoren-9,4'-imidazolidine)-2',5'-dione]

IC50 (Rat Aldose Reductase): 420 nM
SMILES: CSc1ccc2c(c1)C1(NC(=O)NC1=O)c1ccccc1-2 (racemic) [P, dl-Spiro-[2-methylthiofluoren-9,4'-imidazolidine]-2',5'-dione]

inhibition at 10 µM (Rat Aldose Reductase): 94% | inhibition at 1 µM (Rat Aldose Reductase): 76% | inhibition at 0.1 µM (Rat Aldose Reductase): 55% | inhibition at 0.01 µM (Rat Aldose Reductase): 12%
SMILES: O=C1NC(=O)C2(N1)c1cc(Br)ccc1-c1ccc(Br)cc12 [F, Spiro-[2,7-dibromofluoren-9,4'-imidazolidine]-2',5'-dione]

IC50 (Rat Aldose Reductase): 460 nM
SMILES: O=C1NC(=O)C2(N1)c1ccccc1-c1c(F)cccc12 (racemic) [U, dl-Spiro-[4-fluorofluoren-9,4'-imidazolidine]-2',5'-dione]

inhibition at 100 µM (Human Aldose Reductase; [1]): 50% | inhibition at 10 µM (Human Aldose Reductase; [2]): 25% | inhibition at 1 µM (Human Aldose Reductase; [3]): 10%
SMILES: Nc1ccc2c(c1)C1(NC(=O)NC1=O)c1cc(N)ccc1-2 [I, Spiro-[2,7-diaminofluoren-9,4'-imidazolidine]-2',5'-dione]

In vitro Aldose Reductase Inhibition (Human Aldose Reductase; 10^-4, human): 65 | In vitro Aldose Reductase Inhibition (Human Aldose Reductase; 10^-5, human): 30 | In vitro Aldose Reductase Inhibition (Human Aldose Reductase; 10^-6, human): 12
SMILES: O=C1NC(=O)C2(N1)c1cc(Cl)ccc1-c1ccc(Cl)cc12 [Compound B, Spiro-[2,7-dichlorofluoren-9,4'-imidazolidine]-2',5'-dione]

inhibition at 100 µM (Rat Aldose Reductase): 96% | inhibition at 10 µM (Rat Aldose Reductase): 85% | inhibition at 1 µM (Rat Aldose Reductase): 47% | inhibition at 0.1 µM (Rat Aldose Reductase): 6%
SMILES: Cc1cccc2c1C1(NC(=O)NC1=O)c1ccccc1-2 (racemic) [K, dl-Spiro-[1-methylfluoren-9,4'-imidazolidine]-2',5'-dione]

inhibition at 100 µM (Rat Aldose Reductase): 100% | inhibition at 10 µM (Rat Aldose Reductase): 82% | inhibition at 1 µM (Rat Aldose Reductase): 62% | inhibition at 0.1 µM (Rat Aldose Reductase): 33% | inhibition at 0.01 µM (Rat Aldose Reductase): 8%
SMILES: O=C1NC(=O)C2(N1)c1ccccc1-c1ccc(Br)cc12 (racemic) [E, dl-Spiro-[2-bromofluoren-9,4'-imidazolidine]-2', 5'-dione]

activity as aldose reductase inhibitors relative to corresponding tetracyclic fluorene compounds (aldose reductase): unexpectedly less active
SMILES: O=C1NC(=O)C2(N1)c1ccccc1Oc1ccccc12 [spiro-(xanthen-9,4'-imidazolidine)-2',5'-dione]

activity against human aldose reductase as compared to rat aldose reductase (Human Aldose Reductase; human vs rat): one fourth
SMILES: O=C1NC(=O)C2(CCOc3ccc(F)cc32)N1 (stereo not shown) [Sarges Resolved, dSpiro-(6-fluorochroman-4,4imidazolidine)-2',5dione, reference compound]
